{"source": "PubChem BioAssay AID1918947", "about": "(Molecular Pharmacology Branch, DTP, NCI, 2023)", "system": "A498 complex spheroid viability", "assay": "Anticancer human tumor A498 cell line growth inhibition;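 as to all read-outs here: spheroids exposed to agents for seven days before readout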;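 as to viability, T/C: 100% = DMSO vehicle-treated spheroids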", "settings": "for pIC50: curve of first compound; for viability, T/C: stronger effect = lower value", "text": "Multicellular complex tumor spheroid response to LSD1 Inhibitor Iadademstat in combination with a variety of drugs and investigational agents in selected tumor cell lines\nThe current study was undertaken to assess response to LSD1 inhibitors in combination with standard-of-care drugs and investigational agents in solid tumor complex spheroid models as well as in the K-562 leukemia. Complex spheroids include a stromal component modeled by human endothelial cells (HUVEC) and fibroblasts modeled by human mesenchymal stem cells (MSCs). The concentration ranges selected for each drug and investigational agent were based upon clinically achievable concentrations if the clinical Cmax of the agent was known.\nCompounds. The drugs and investigational agents used in this study are listed on Table 1. All of the agents used, including staurosporine (NSC755774) and gemcitabine (NSC613327), were obtained from the Developmental Therapeutics Program, NCI. FDA-approved anticancer drugs are available from the NCI at http://dtp.nci.nih.gov/branches/dscb/oncology_drugset_explanation.html. Drugs and investigational agents were >95% pure by proton nuclear magnetic resonance (NMR) and liquid chromatography/mass spectrometry (LC/MS). Stock solutions were prepared at 400x in DMSO, stored at -70 degrees C, and diluted in fresh medium prior to their use. The final concentration of DMSO in cell culture wells never exceeded 0.25% (v/v). The FDA-approved anticancer drug set is available from the Developmental Therapeutics Program at https://dtp.cancer.gov/organization/dscb/obtaining/available_plates.htm. All drugs and investigational agents were tested over a range starting from a high concentration at or near the clinical Cmax and decreasing in half-log increments. If the clinical Cmax for an agent had not been determined, the highest concentration tested was 10 microM.\nCell Lines. The patient-derived cancer cell (PDC) lines: 292921-168-R-J2-PDC, K24384-001-R-PDC, and 521955-158-R2-J5-PDC pancreatic carcinomas, 556581-035-R-J1 ovarian carcinoma, 324938-238-R-J1-PDC, 855422-203-R-J1-PDC and 883617-216-R-J1-PDC urothelial bladder carcinomas, 743489-274-T-PDC renal cell carcinoma, 138582-R-J1 Merkel cell tumor, K60290-347-R-J1 and K57222-313-R-J1-PDC glioblastomas, 653999-131-R-J2-PDC, LG0703-F948-PDC, and 349418-098-R-PDC non-small cell lung carcinomas, 885512-296-R-J2-PDC, 171881-019-R-J1-PDC breast carcinomas and 186277-243-T-J2-PDC and 233499-124-R-J2-PDC colon carcinomas were obtained from the NCI Patient-Derived Models Repository (PDMR, https://pdmr.cancer.gov). The established cell lines NCI/ADR-RES (RRID:CVCL_14520 and OVCAR-5 (RRID:CVCL_1628) ovarian carcinomas, 786-O (RRID:CVCL_1051) and A498 (RRID:CVCL_A498) renal cell carcinoma, NCI-H211 (ATCC, cat. CRL-5824; RRID:CVCL_1529), NCI-H196 (ATCC, cat. CRL-5823, RRID:CVCL_1509), SW 1271 (ATCC, cat. CRL-2177, RRID:CVCL_1716) and NCI-H1876 (ATCC, cat. CRL-5902, RRID:CVCL_1503) small cell lung carcinomas, MDA-MB-231 (RRID:CVCL_0062) and MDA-MB-468 (RRID:CVCL_0419)breast carcinomas (10-12). Pooled donor human umbilical vein endothelial cells (HUVEC, Lonza, cat. CC-2519) and human mesenchymal stem cells (hMSC, Lonza, cat. PT-2501) were purchased from Lonza (Walkersville, MD).\nCell Culture. All cells were maintained in an incubator at 37 degrees C and 5% CO2 with 95% humidity. The PDC lines were cultured according to standard operating procedures established by the NCI PDMR (https://pdmr.cancer.gov). Briefly all PDCs were thawed and cultured in Matrigel-coated flasks prepared with a working solution of 1X Ham's F-12 nutrient mix, without supplementation (Invitrogen, Waltham, MA, cat. 11765054), 100 U/mL penicillin-streptomycin (Invitrogen, cat. 15140122), and 2.5% Matrigel (Corning Inc., Corning, NY, cat. 354248) for the first three passages. […]", "note": "pIC50: −log10 of the molar value."}
{"smiles": "Nc1ncn(C2CC(O)C(CO)S2)c(=O)n1", "note": "(stereo not given) + NC1CCC(NC2CC2c2ccccc2)CC1", "values": [{"measurement": "pIC50", "setting": "second compound 0.1 µM", "value": 6.81}, {"measurement": "pIC50", "setting": "second compound 0.316 µM", "value": 6.84}, {"measurement": "pIC50", "setting": "second compound 1 µM", "value": 6.95}, {"measurement": "pIC50", "setting": "second compound 3.16 µM", "value": 7.13}, {"measurement": "pIC50", "setting": "second compound 10 µM", "value": 7.32}, {"measurement": "viability, T/C", "setting": "second compound 0.1 µM, first compound 0.000949 µM", "value": 101, "unit": "%"}, {"measurement": "viability, T/C", "setting": "second compound 0.1 µM, first compound 0.003 µM", "value": 92.5, "unit": "%"}, {"measurement": "viability, T/C", "setting": "second compound 0.1 µM, first compound 0.00949 µM", "value": 88.6, "unit": "%"}, {"measurement": "viability, T/C", "setting": "second compound 0.1 µM, first compound 0.03 µM", "value": 87.5, "unit": "%"}, {"measurement": "viability, T/C", "setting": "second compound 0.1 µM, first compound 0.0949 µM", "value": 62.1, "unit": "%"}, {"measurement": "viability, T/C", "setting": "second compound 0.1 µM, first compound 0.3 µM", "value": 31.5, "unit": "%"}, {"measurement": "viability, T/C", "setting": "second compound 0.316 µM, first compound 0.000949 µM", "value": 95.1, "unit": "%"}, {"measurement": "viability, T/C", "setting": "second compound 0.316 µM, first compound 0.003 µM", "value": 98.7, "unit": "%"}, {"measurement": "viability, T/C", "setting": "second compound 0.316 µM, first compound 0.00949 µM", "value": 98, "unit": "%"}, {"measurement": "viability, T/C", "setting": "second compound 0.316 µM, first compound 0.03 µM", "value": 95.2, "unit": "%"}, {"measurement": "viability, T/C", "setting": "second compound 0.316 µM, first compound 0.0949 µM", "value": 58.4, "unit": "%"}, {"measurement": "viability, T/C", "setting": "second compound 0.316 µM, first compound 0.3 µM", "value": 36, "unit": "%"}, {"measurement": "viability, T/C", "setting": "second compound 1 µM, first compound 0.000949 µM", "value": 90.4, "unit": "%"}, {"measurement": "viability, T/C", "setting": "second compound 1 µM, first compound 0.003 µM", "value": 94.9, "unit": "%"}, {"measurement": "viability, T/C", "setting": "second compound 1 µM, first compound 0.00949 µM", "value": 91.6, "unit": "%"}, {"measurement": "viability, T/C", "setting": "second compound 1 µM, first compound 0.03 µM", "value": 81.7, "unit": "%"}, {"measurement": "viability, T/C", "setting": "second compound 1 µM, first compound 0.0949 µM", "value": 54.4, "unit": "%"}, {"measurement": "viability, T/C", "setting": "second compound 1 µM, first compound 0.3 µM", "value": 26.2, "unit": "%"}, {"measurement": "viability, T/C", "setting": "second compound 3.16 µM, first compound 0.000949 µM", "value": 85.1, "unit": "%"}, {"measurement": "viability, T/C", "setting": "second compound 3.16 µM, first compound 0.003 µM", "value": 83.5, "unit": "%"}, {"measurement": "viability, T/C", "setting": "second compound 3.16 µM, first compound 0.00949 µM", "value": 90.6, "unit": "%"}, {"measurement": "viability, T/C", "setting": "second compound 3.16 µM, first compound 0.03 µM", "value": 75.8, "unit": "%"}, {"measurement": "viability, T/C", "setting": "second compound 3.16 µM, first compound 0.0949 µM", "value": 43, "unit": "%"}, {"measurement": "viability, T/C", "setting": "second compound 3.16 µM, first compound 0.3 µM", "value": 23.7, "unit": "%"}, {"measurement": "viability, T/C", "setting": "second compound 10 µM, first compound 0.000949 µM", "value": 74.5, "unit": "%"}, {"measurement": "viability, T/C", "setting": "second compound 10 µM, first compound 0.003 µM", "value": 81.7, "unit": "%"}, {"measurement": "viability, T/C", "setting": "second compound 10 µM, first compound 0.00949 µM", "value": 76.1, "unit": "%"}, {"measurement": "viability, T/C", "setting": "second compound 10 µM, first compound 0.03 µM", "value": 67.2, "unit": "%"}, {"measurement": "viability, T/C", "setting": "second compound 10 µM, first compound 0.0949 µM", "value": 25.9, "unit": "%"}, {"measurement": "viability, T/C", "setting": "second compound 10 µM, first compound 0.3 µM", "value": 14.3, "unit": "%"}]}
{"smiles": "CC(C)CC(NC(=O)CNC(=O)c1cc(Cl)ccc1Cl)B1OC(=O)CC(CC(=O)O)(C(=O)O)O1", "note": "(stereo not given) + NC1CCC(NC2CC2c2ccccc2)CC1", "values": [{"measurement": "pIC50", "setting": "second compound 0.1 µM", "value": 8.34}, {"measurement": "pIC50", "setting": "second compound 0.316 µM", "value": 8.31}, {"measurement": "pIC50", "setting": "second compound 1 µM", "value": 8.34}, {"measurement": "pIC50", "setting": "second compound 3.16 µM", "value": 8.38}, {"measurement": "pIC50", "setting": "second compound 10 µM", "value": 8.53}, {"measurement": "viability, T/C", "setting": "second compound 0.1 µM, first compound 0.000316 µM", "value": 86.6, "unit": "%"}, {"measurement": "viability, T/C", "setting": "second compound 0.1 µM, first compound 0.001 µM", "value": 91.6, "unit": "%"}, {"measurement": "viability, T/C", "setting": "second compound 0.1 µM, first compound 0.00316 µM", "value": 64.4, "unit": "%"}, {"measurement": "viability, T/C", "setting": "second compound 0.1 µM, first compound 0.01 µM", "value": 18.1, "unit": "%"}, {"measurement": "viability, T/C", "setting": "second compound 0.1 µM, first compound 0.0316 µM", "value": 4.94, "unit": "%"}, {"measurement": "viability, T/C", "setting": "second compound 0.1 µM, first compound 0.1 µM", "value": 3.27, "unit": "%"}, {"measurement": "viability, T/C", "setting": "second compound 0.316 µM, first compound 0.000316 µM", "value": 94.3, "unit": "%"}, {"measurement": "viability, T/C", "setting": "second compound 0.316 µM, first compound 0.001 µM", "value": 102, "unit": "%"}, {"measurement": "viability, T/C", "setting": "second compound 0.316 µM, first compound 0.00316 µM", "value": 72, "unit": "%"}, {"measurement": "viability, T/C", "setting": "second compound 0.316 µM, first compound 0.01 µM", "value": 14.6, "unit": "%"}, {"measurement": "viability, T/C", "setting": "second compound 0.316 µM, first compound 0.0316 µM", "value": 5.43, "unit": "%"}, {"measurement": "viability, T/C", "setting": "second compound 0.316 µM, first compound 0.1 µM", "value": 2.63, "unit": "%"}, {"measurement": "viability, T/C", "setting": "second compound 1 µM, first compound 0.000316 µM", "value": 87.7, "unit": "%"}, {"measurement": "viability, T/C", "setting": "second compound 1 µM, first compound 0.001 µM", "value": 96.5, "unit": "%"}, {"measurement": "viability, T/C", "setting": "second compound 1 µM, first compound 0.00316 µM", "value": 65.5, "unit": "%"}, {"measurement": "viability, T/C", "setting": "second compound 1 µM, first compound 0.01 µM", "value": 15.4, "unit": "%"}, {"measurement": "viability, T/C", "setting": "second compound 1 µM, first compound 0.0316 µM", "value": 3.18, "unit": "%"}, {"measurement": "viability, T/C", "setting": "second compound 1 µM, first compound 0.1 µM", "value": 1.44, "unit": "%"}, {"measurement": "viability, T/C", "setting": "second compound 3.16 µM, first compound 0.000316 µM", "value": 84.3, "unit": "%"}, {"measurement": "viability, T/C", "setting": "second compound 3.16 µM, first compound 0.001 µM", "value": 91.2, "unit": "%"}, {"measurement": "viability, T/C", "setting": "second compound 3.16 µM, first compound 0.00316 µM", "value": 62.4, "unit": "%"}, {"measurement": "viability, T/C", "setting": "second compound 3.16 µM, first compound 0.01 µM", "value": 9.48, "unit": "%"}, {"measurement": "viability, T/C", "setting": "second compound 3.16 µM, first compound 0.0316 µM", "value": 2.6, "unit": "%"}, {"measurement": "viability, T/C", "setting": "second compound 3.16 µM, first compound 0.1 µM", "value": 0.83, "unit": "%"}, {"measurement": "viability, T/C", "setting": "second compound 10 µM, first compound 0.000316 µM", "value": 74.9, "unit": "%"}, {"measurement": "viability, T/C", "setting": "second compound 10 µM, first compound 0.001 µM", "value": 83.3, "unit": "%"}, {"measurement": "viability, T/C", "setting": "second compound 10 µM, first compound 0.00316 µM", "value": 47.5, "unit": "%"}, {"measurement": "viability, T/C", "setting": "second compound 10 µM, first compound 0.01 µM", "value": 7.21, "unit": "%"}, {"measurement": "viability, T/C", "setting": "second compound 10 µM, first compound 0.0316 µM", "value": 1.59, "unit": "%"}, {"measurement": "viability, T/C", "setting": "second compound 10 µM, first compound 0.1 µM", "value": 0.69, "unit": "%"}]}
